Results taken from patent US20190382827A1, “USE OF MICROBIAL METABOLITES FOR TREATING DISEASES” (Yeda Research and Development Co. Ltd., priority 2015, published 2019).
Entries after “also recorded” stand apart in the source; their conditions may differ.

Test system: DSS colitis
Experiment: DSS colitis
Format: in vivo, mouse
Procedure: For IL-18 rescue experiments, recombinant IL-18 (MBL, Cat#B004-2) was injected intraperitoneally at a concentration of 1 μg per mouse for 5 days, and not injected for 2 days prior to DSS treatment. IL-18 injection to Swiss Webster germ-free mice and Nlrp6^−/− mice was performed twice a day for 3 days, while the mice were kept sterile using a cage-autonomous system (Hecht et al., 2014).
Mice were treated with 1.5% (w/v) DSS (M.W.=36,000-50,000 Da; MP Biomedicals) in their drinking water for 7 days followed by regular access to water. The animals were weighed daily and monitored for signs of distress as well as rectal bleeding.
For DSS rescue experiments, mice were receiving taurine in the drinking water prior to DSS treatment in a concentration of 100 mg/ml for 14 days.
Colonoscopy was performed using a high-resolution mouse video endoscopic system (Carl Storz, Tuttlingen, Germany). The severity of colitis was blindly scored using MEICS (Murine Endoscopic Index of Colitis Severity), which is based on five parameters: granularity of mucosal surface; vascular pattern; translucency of the colon mucosa; visible fibrin; and stool consistency (Becker et al., 2006).
On the day of the assay, 4 kDa fluorescein isothiocyanate (FITC)-dextran was dissolved in phosphate buffered saline (PBS) to a concentration of 80 mg ml^−1. Mice were fasted for 4 hours prior to gavage with 150 μl dextran. Mice were anesthetized 3 hours following gavage and blood was collected, centrifuged at 1,000×g for 12 min at 4° C. Serum was collected and fluorescence was quantified at an excitation wavelength of 485 nm and 535 nm emission wavelength.
DNA was extracted from liver samples (using MoBio PowerSoil kit). DNA concentration was calculated using a standard curve of known DNA concentrations from E. coli K12. 16S qPCR using primers identifying different regions of the V6 16S gene was performed using Kappa SYBR fast mix.
Absolute number of bacteria in the samples was then approximated as DNA amount in a sample/DNA molecule mass of bacteria.

[1] = WT mice, DSS colitis, taurine in drinking water
[2] = WT mice, taurine in drinking water for two weeks, then DSS colitis

SMILES	exacerbation of DSS colitis (WT mice concomitantly treated with antibiotics)	DSS colitis (WT mice, histamine treatment)	beneficial effects on DSS colitis (GF WT mice)	beneficial effects on DSS colitis (WT mice treated with broad-spectrum antibiotics)	hepatic bacterial load [1]	systemic FITC-dextran influx [1]	epithelial tight junction integrity (WT mice, DSS colitis, taurine in drinking water, ZO-1 staining)	beneficial effects on DSS colitis (WT mice, taurine administration stopped before induction of DSS colitis)	colitis severity [2]	weight loss [2]	survival (WT mice, taurine in drinking water, DSS)	beneficial effects on DSS colitis (mice lacking either ASC or NLRP6)
NCCc1c[nH]cn1 [histamine]	prevented	exacerbated	–	–	–	–	–	–	–	–	–	–
NCCS(=O)(=O)O [taurine]	–	–	failed to have beneficial effects	failed to have beneficial effects	decreased	reduced	sustained	beneficial effects were also observed	ameliorated; also recorded: reduced	improved	enhanced	failed to have beneficial effects
